Experiment [1] has as its target DCAF15/RBM39 (Homo sapiens, UniProt Q14498+Q66K64). As to the kind of experiment: AlphaLISA compound-induced DCAF15-RBM39 ternary complex formation. Format: binding. To be noted: His-tagged DCAF15 complex and biotin-carrying RBM39. A digest of the protocol: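 Compounds, serially diluted 3-fold from 2 mM DMSO stocks, were incubated 1 h at room temperature with His-tagged DCAF15 complex and biotinylated RBM39 (mixture at 408 nM each, 2.04×). The buffer was 50 mM HEPES pH 7.5, 100 mM NaCl, 2 mM MgCl2, 2 mM TCEP. Ni-chelate acceptor and streptavidin donor beads were added sequentially (1–2 h each), and the AlphaLISA signal was titrated.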

In experiment [2] the target is DCAF15 (Homo sapiens, UniProt Q66K64). As to the kind of experiment: HTRF competition assay, binary interaction between compounds and DCAF15. The experiment is classed as binding. Conditions: competition with Alexa Fluor 647 tracer, His-tagged DCAF15 complex. A digest of the protocol: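 Compounds, 3-fold serially diluted in DMSO, competed with an Alexa Fluor 647 tracer (612 nM, 2.04× stock) for His-tagged DCAF15 complex (32 nM, 4× stock) premixed 15 min with anti-6His-Eu cryptate. Buffer was 25 mM HEPES pH 7.5, 100 mM NaCl, 0.5 mM TCEP. After 1 h at RT, the 615/666 nm ratio gave titration curves.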

`CN(C)C(=O)c1ccc(CCNC(=O)c2ccc(S(=O)(=O)Nc3ccc(Cl)c4c(Cl)c[nH]c34)c(F)c2)cc1` [Compound 195]: the concentration for a half-maximal effect (EC50) in experiment [1] is 1000 to 10000 nM. The compound also gave a half-inhibitory concentration (IC50) in experiment [2] of 1000 to 10000 nM.

With `CN(C)C(=O)C[C@H](NC(=O)c1cccc(S(=O)(=O)Nc2ccc(Cl)c3c(Cl)c[nH]c23)c1F)c1ccccc1` [Compound 196], the concentration giving a half-maximal response (EC50) in experiment [1] was in the range of 1000 to 10000 nM. For the same compound, the IC50 in experiment [2] fell in the range of 1000 to 10000 nM.

Turning to `CN(C)C(=O)C[C@H](NC(=O)c1ccc(S(=O)(=O)Nc2ccc(Cl)c3c(Cl)c[nH]c23)c(F)c1)c1ccccc1` [Compound 197], the EC50 in experiment [1] was less than 1000 nM. Moreover, the IC50 in experiment [2] lay in the range of 1000 to 10000 nM.

In experiment [1], `Cc1ccc(CCNC(=O)c2cccc(S(=O)(=O)Nc3ccc(Cl)c4c(Cl)c[nH]c34)c2F)o1` [Compound 198] displayed an EC50 of 1000 to 10000 nM. The same compound showed an IC50 in experiment [2] of 1000 to 10000 nM.

`Cc1ccc(CCNC(=O)c2ccc(S(=O)(=O)Nc3ccc(Cl)c4c(Cl)c[nH]c34)c(F)c2)o1` [Compound 199]: the 50% effective concentration (EC50) in experiment [1] fell in the range of 1000 to 10000 nM. This compound also returned an IC50 in experiment [2] of 1000 to 10000 nM.

In experiment [1], `O=C(NCCc1ccccn1)c1cccc(S(=O)(=O)Nc2ccc(Cl)c3c(Cl)c[nH]c23)c1F` [Compound 200] registered an EC50 of less than 1000 nM. For the same compound, the 50% inhibitory concentration (IC50) in experiment [2] was less than 1000 nM.

In turn, `O=C(NCCc1ccccn1)c1ccc(S(=O)(=O)Nc2ccc(Cl)c3c(Cl)c[nH]c23)c(F)c1` [Compound 201] showed an EC50 in experiment [1] of less than 1000 nM. In addition, the half-maximal inhibitory concentration (IC50) in experiment [2] was 1000 to 10000 nM.

In the case of `COCCOCCCNC(=O)c1cccc(S(=O)(=O)Nc2ccc(Cl)c3c(Cl)c[nH]c23)c1F` [Compound 202], in experiment [1], the EC50 was less than 1000 nM. Moreover, in experiment [2], the concentration for half-maximal inhibition (IC50) lay within 1000 to 10000 nM.

As to `COCCOCCCNC(=O)c1ccc(S(=O)(=O)Nc2ccc(Cl)c3c(Cl)c[nH]c23)c(F)c1` [Compound 203], in experiment [1], the concentration giving a half-maximal response (EC50) is less than 1000 nM. In experiment [2], this compound came in with an IC50 of 1000 to 10000 nM.

`O=C(NCCCOCc1ccccc1)c1cccc(S(=O)(=O)Nc2ccc(Cl)c3c(Cl)c[nH]c23)c1F` [Compound 204] had a half-maximal effective concentration (EC50) in experiment [1] of 1000 to 10000 nM. For the same compound, the 50% inhibitory concentration (IC50) in experiment [2] fell in the range of 1000 to 10000 nM.

`O=C(NCCCOCc1ccccc1)c1ccc(S(=O)(=O)Nc2ccc(Cl)c3c(Cl)c[nH]c23)c(F)c1` [Compound 205] displayed an EC50 in experiment [1] of less than 1000 nM. In experiment [2], the IC50 is greater than 100000 nM.

The compound `O=C(NCCCC(=O)N1CCCC1)c1cccc(S(=O)(=O)Nc2ccc(Cl)c3c(Cl)c[nH]c23)c1F` [Compound 206] gave a 50% effective concentration (EC50) in experiment [1] of less than 1000 nM. In addition, the IC50 in experiment [2] was less than 1000 nM.

Turning to `O=C(NCCCC(=O)N1CCCC1)c1ccc(S(=O)(=O)Nc2ccc(Cl)c3c(Cl)c[nH]c23)c(F)c1` [Compound 207], in experiment [1], the EC50 was less than 1000 nM. In experiment [2], the IC50 was less than 1000 nM.

`O=C(NCCCc1ccc(Cl)cc1)c1cccc(S(=O)(=O)Nc2ccc(Cl)c3c(Cl)c[nH]c23)c1F` [Compound 208] yielded a 50% effective concentration (EC50) in experiment [1] greater than 100000 nM. This compound came in with an IC50 in experiment [2] greater than 100000 nM.

`O=C(NCCCc1ccc(Cl)cc1)c1ccc(S(=O)(=O)Nc2ccc(Cl)c3c(Cl)c[nH]c23)c(F)c1` [Compound 209] had an EC50 in experiment [1] of 1000 to 10000 nM. Moreover, the IC50 in experiment [2] is greater than 100000 nM.

Compound `CC[C@H](NC(=O)c1cccc(S(=O)(=O)Nc2ccc(Cl)c3c(Cl)c[nH]c23)c1F)c1ccc2c(c1)OCCO2` [Compound 210] gave a 50% effective concentration (EC50) in experiment [1] of 1000 to 10000 nM. This compound yielded an IC50 in experiment [2] of 1000 to 10000 nM.

With `CC[C@H](NC(=O)c1ccc(S(=O)(=O)Nc2ccc(Cl)c3c(Cl)c[nH]c23)c(F)c1)c1ccc2c(c1)OCCO2` [Compound 211], the 50% effective concentration (EC50) in experiment [1] is 1000 to 10000 nM. This compound also showed an IC50 in experiment [2] of 1000 to 10000 nM.

`CC(C)C[C@H](NC(=O)c1ccc(S(=O)(=O)Nc2ccc(Cl)c3c(Cl)c[nH]c23)c(F)c1)c1nc2ccccc2[nH]1` [Compound 212]: in experiment [1], the concentration giving a half-maximal response (EC50) was in the range of 1000 to 10000 nM. This compound showed a half-maximal inhibitory concentration (IC50) in experiment [2] of 1000 to 10000 nM.

The compound `CC(C)C[C@H](NC(=O)c1cccc(S(=O)(=O)Nc2ccc(Cl)c3c(Cl)c[nH]c23)c1F)c1nc2ccccc2[nH]1` [Compound 213] gave an EC50 in experiment [1] of less than 1000 nM. The compound further displayed an IC50 in experiment [2] of 1000 to 10000 nM.

For the compound `O=C(c1cccc(S(=O)(=O)Nc2ccc(Cl)c3c(Cl)c[nH]c23)c1F)N1CC(N2CCc3ccccc32)C1` [Compound 214], the EC50 in experiment [1] was in the range of 1000 to 10000 nM. The compound further gave an IC50 in experiment [2] of 1000 to 10000 nM.
